Results taken from patent US6664231B1, “Anti-fungal peptides” (priority 1993, dated 2003).
Where two headings read alike, the source gives them in different places. Square brackets hold non-standard residues; d marks the D form. Ends that are not written are not given here. Peptide text beside a SMILES is read from it. 12Ado = NCCCCCCCCCCCC(=O)O; Aoc = NCCCCCCCC(=O)O

How the values were obtained:
[1] = tested on: mouse RAW 264.7 cells incubated with E. coli O113 LPS; conditions: RAW 264.7 cells with E. coli O113 LPS; concentration reversing LPS growth inhibition by 50%
Method: (§1) An in vitro LPS neutralization screening assay for evaluation of Domain III derived peptides was developed (as described in co-owned and co-pending U.S. patent application Ser. No. 08/306,473) which provides both a measure of efficacy of each peptide (EC50) and of the toxicity/growth inhibition of each peptide (IC50).
(§2) The cells were counted and their concentration adjusted to 2×10^5 cells/mL and 100 μL aliquots were added to each well of a 96-well microtitre plate. […] This incubation was performed in the absence or presence of peptides in varying concentrations between 25 ng/mL and 50 μg/mL. […] Cell proliferation was quantitatively measured by the addition of 1 μCi/well [^3H]-thymidine 5 hours after the time of initiation of the assay. After the 15-hour incubation, labeled cells were harvested onto glass fiber filters with a cell harvester (Inotech Biosystems, INB-384, Sample Processing and Filter Counting System, Lansing, Mich.).

[2] = tested on: mouse RAW 264.7 cells
Method: as §1, §2

[3] = RAW 264.7 cell growth inhibited by 50%

Row | Compound | In Vitro LPS Neutralization EC50 [1] | IC50 (toxicity/growth inhibition of peptide) [2, 3] | IC50 (toxicity/growth inhibition of peptide) [2] [µg/mL]
1 | CC[C@@H](C)[C@@H](NC(=O)[C@@H](CCC(N)=O)NC(=O)[C@@H](CC(C)C)NC(=O)[C@H](N)CCCCN)C(=O)N[C@H](CC(C)C)C(=O)N[C@H](Cc1c[nH]c2ccccc12)C(=O)N[C@H](CCCCN)C(=O)N[C@H](CCCCN)C(N)=O [XMP.374P] | 13.97 ± 2.02 µg/mL | NA (NA for IC50 means no evidence of decreased RAW cell growth at up to 50 μg/ml) | –
2 | CC[C@@H](C)[C@@H](NC(=O)[C@@H](C)NC(=O)[C@@H](Cc1c[nH]c2ccccc12)NC(=O)[C@@H](CCCCN)NC(=O)[C@H](N)CCCCN)C(=O)N[C@H](CCC(N)=O)C(=O)N[C@H](CC(C)C)C(=O)N[C@H](CCCCN)C(=O)N[C@H](CCCCN)C(N)=O [XMP.375P] (H-[dK][dK][dW][dA][dI][dQ][dL][dK][dK]-NH2) | >50 µg/mL | NA (NA for IC50 means no evidence of decreased RAW cell growth at up to 50 μg/ml) | –
3 | CC[C@@H](C)[C@@H](NC(=O)[C@@H](CCC(N)=O)NC(=O)[C@@H](CC(C)C)NC(=O)[C@@H](CCCCN)NC(=O)[C@H](N)CCCCN)C(=O)N[C@H](C)C(=O)N[C@H](Cc1c[nH]c2ccccc12)C(=O)N[C@H](CCCCN)C(=O)N[C@H](CCCCN)C(N)=O [XMP.376P] (H-[dK][dK][dL][dQ][dI][dA][dW][dK][dK]-NH2) | >50 µg/mL | NA (NA for IC50 means no evidence of decreased RAW cell growth at up to 50 μg/ml) | –
4 | CC[C@H](C)[C@@H]1NC(=O)[C@H](C)NC(=O)[C@H](Cc2c[nH]c3ccccc23)NC(=O)[C@H](CCCCN)NC(=O)[C@H](CCCCN)NC(=O)[C@H](CCCCN)NC(=O)[C@H](CC(C)C)NC(=O)[C@H](CCC(N)=O)NC1=O [XMP.408P] (cyclo(LKKKWAIQ)) | NA (NA for EC50 means no evidence neutralization of LPS at up to 50 μg/ml) | NA (NA for IC50 means no evidence of decreased RAW cell growth at up to 50 μg/ml) | –
5 | CCCCCCCC(=O)N[C@H](CCCCN)C(=O)N[C@H](Cc1c[nH]c2ccccc12)C(=O)N[C@H](CC(C)C)C(=O)N[C@@H](C(=O)N[C@H](CCC(N)=O)C(=O)N[C@H](CC(C)C)C(=O)N[C@H](Cc1ccccc1)C(=O)N[C@H](Cc1c[nH]cn1)C(=O)N[C@H](CCCCN)C(=O)N[C@H](CCCCN)C(N)=O)[C@H](C)CC [XMP.414] | 1.91 ± 0.04 µg/mL | 10.96 ± 0.52 µg/mL | –
6 | CCCCCCCCCCCC(=O)N[C@H](CCCCN)C(=O)N[C@H](Cc1c[nH]c2ccccc12)C(=O)N[C@H](CC(C)C)C(=O)N[C@@H](C(=O)N[C@H](CCC(N)=O)C(=O)N[C@H](CC(C)C)C(=O)N[C@H](Cc1ccccc1)C(=O)N[C@H](Cc1c[nH]cn1)C(=O)N[C@H](CCCCN)C(=O)N[C@H](CCCCN)C(N)=O)[C@H](C)CC [XMP.415] | 1.61 ± 0.03 µg/mL | – | 6.80 ± 0.14
7 | CC[C@@H](C)[C@@H](NC(=O)[C@@H](CC(C)C)NC(=O)[C@@H](Cc1c[nH]c2ccccc12)NC(=O)[C@@H](CCCCN)NC(=O)CCCCCCCN)C(=O)N[C@H](CCC(N)=O)C(=O)N[C@H](CC(C)C)C(=O)N[C@H](Cc1ccccc1)C(=O)N[C@H](Cc1c[nH]cn1)C(=O)N[C@H](CCCCN)C(=O)N[C@H](CCCCN)C(N)=O [XMP.416] (H-[Aoc][dK][dW][dL][dI][dQ][dL][dF][dH][dK][dK]-NH2) | 4.67 ± 0.27 µg/mL | 24.41 ± 0.78 µg/mL | –
8 | CC[C@@H](C)[C@@H](NC(=O)[C@@H](CC(C)C)NC(=O)[C@@H](Cc1c[nH]c2ccccc12)NC(=O)[C@@H](CCCCN)NC(=O)CCCCCCCCCCCN)C(=O)N[C@H](CCC(N)=O)C(=O)N[C@H](CC(C)C)C(=O)N[C@H](Cc1ccccc1)C(=O)N[C@H](Cc1c[nH]cn1)C(=O)N[C@H](CCCCN)C(=O)N[C@H](CCCCN)C(N)=O [XMP.417] (H-[12Ado][dK][dW][dL][dI][dQ][dL][dF][dH][dK][dK]-NH2; C-terminus assumed) | 3.88 ± 0.20 µg/mL | – | 11.26 ± 1.30
9 | Ac-PWLIQLFHKK-NH2 [XMP.356P] | 2.72 ± 0.02 µg/mL | – | >25
10 | GWLIQLFHKK-NH2 [XMP.388P] | 8.08 ± 1.52 µg/mL | NA (NA for IC50 means no evidence of decreased RAW cell growth at up to 50 μg/ml) | –
11 | H-HHWLIQLHH-NH2 [XMP 337P] | >50 µg/mL | NA (NA for IC50 means no evidence of decreased RAW cell growth at up to 50 μg/ml) | –
12 | H-KKLLLLLKK-NH2 [XMP.385P] | 2.56 ± 0.23 µg/mL | – | >25
13 | H-KKLLLQLKK-NH2 [XMP.383P] | NA (NA for EC50 means no evidence neutralization of LPS at up to 50 μg/ml) | NA (NA for IC50 means no evidence of decreased RAW cell growth at up to 50 μg/ml) | –
14 | H-KKLLQLLKK-NH2 [XMP.382P] | NA (NA for EC50 means no evidence neutralization of LPS at up to 50 μg/ml) | NA (NA for IC50 means no evidence of decreased RAW cell growth at up to 50 μg/ml) | –
15 | H-KKLQLLLKK-NH2 [XMP.381P] | NA (NA for EC50 means no evidence neutralization of LPS at up to 50 μg/ml) | NA (NA for IC50 means no evidence of decreased RAW cell growth at up to 50 μg/ml) | –
16 | H-KKQLLLLKK-NH2 [XMP.380P] | NA (NA for EC50 means no evidence neutralization of LPS at up to 50 μg/ml) | NA (NA for IC50 means no evidence of decreased RAW cell growth at up to 50 μg/ml) | –
17 | H-KKWLIQAKK-NH2 [XMP.345P] | >50 µg/mL | NA (NA for IC50 means no evidence of decreased RAW cell growth at up to 50 μg/ml) | –
18 | H-KKWLIQLFHKK-NH2 [XMP.352P] | 2.34 ± 0.38 µg/mL | NA (NA for IC50 means no evidence of decreased RAW cell growth at up to 50 μg/ml) | –
19 | H-KPWLIQLFHKK-NH2 [XMP.390P] | 3.97 ± 0.21 µg/mL | NA (NA for IC50 means no evidence of decreased RAW cell growth at up to 50 μg/ml) | –
20 | H-KSKVPWLIQLFHKK-NH2 [XMP.393P] | >25 µg/mL | NA (NA for IC50 means no evidence of decreased RAW cell growth at up to 50 μg/ml) | –
21 | H-KVKWLIQLF-NH2 [XMP.295P] | 3.69 ± 0.12 µg/mL | – | >25
22 | H-KVKWLIQLFHK-NH2 [XMP.288P] | 0.87 ± 0.06 µg/mL | – | >25
23 | H-KVPWLIQLFHKK-NH2 [XMP.392P] | 24.03 ± 2.67 µg/mL | NA (NA for IC50 means no evidence of decreased RAW cell growth at up to 50 μg/ml) | –
24 | H-PWLIQLFHKK-NH2 [XMP.355P] | 1.08 ± 0.05 µg/mL | NA (NA for IC50 means no evidence of decreased RAW cell growth at up to 50 μg/ml) | –
25 | H-RRWLIQLRR-NH2 [XMP.336P] | NA (NA for EC50 means no evidence neutralization of LPS at up to 50 μg/ml) | NA (NA for IC50 means no evidence of decreased RAW cell growth at up to 50 μg/ml) | –
